Laboratory results from PMC11056991, “Promising Anticancer Prodrugs Based on Pt(IV) Complexes with Bis-organosilane Ligands in Axial Positions” (Journal of Medicinal Chemistry, 2024).

Columns and labels:
HCT 116 cells = test: Trypan blue exclusion test; type: cell-based, human; details: HCT 116, 0.5 μM, 2 days
Method: HCT 116 cells were harvested by trypsinization followed by centrifugation at 500g for 5 min. The cell pellet was resuspended in 1 mL of PBS. Equal volumes of trypan blue (Bio-Rad cat. no. 1450021) 0.4% and cell suspension were mixed and incubated for 1–3 min at room temperature, and cell counting was carried out using a TC20 Automated Cell Counter (Bio-Rad cat. no. 1450102). The percentage of viable cells was calculated by dividing the number of viable cells per milliliter by the number total of cells per milliliter) × 100. Representative images were acquired using a Zeis light microscope with a 20× objective.

HCT 116 cancer cells = details: data not shown
Method: Cell were trypsinized, centrifuged at 500g for 5 min, resuspended in PBS, and stained with 7-aminoactinomycin D (7AAD, Santa Cruz Biotechnology), a DNA intercalating dye excluded from viable cells due to membrane impermeability. The 7AAD was excited at 546 nm and analyzed at 656 nm. Only apoptotic and necrotic cells are stained by these dyes. After incubation for 50 min in the dark at 37 °C, the cells were analyzed by flow cytometry (CytoFlex, Beckman Coulter). The percentages of cells stained with or without dyes were analyzed using the CytExpert Software (Beckman Coulter).

[1] = 195Pt NMR reduction kinetics with ascorbic acid; type: physicochemical; details: AsA 4:1 excess, DMSO/D2O (4:1), 37 °C, 2, 6, 24 h
Method: AsA presents an intracellular concentration of 1 mM, whereas the GSH concentration is 2 mM.[38] This reactivity was monitored by ^195Pt NMR at different times. Thus, by analyzing the different regions where the signals of Pt(II)/Pt(IV) species appear, it is possible to identify and assign the different compounds formed during the reaction. In most cases, the regions where the Pt(II) and Pt(IV) signals appear are separated by more than 3000 ppm.[33]
We first studied the reduction of the complexes against AsA, monitoring the reaction in both the Pt(IV) and Pt(II) region at 2, 6, and 24 h. In both cases, we used a mixture of DMSO/D2O (4:1) to reach the solubilization of the complexes and the AsA. In the Pt(IV)-biSi-1 reduction experiment, during the first hour, only the signal at 1210 ppm appeared in the Pt(IV) region (Figure S13A), which corresponds to the original complex, and no signal was detected in the Pt(II) region.
Each solution was then slowly added to 100 μL of a solution of the corresponding reducing agent (AsA or GSH in an excess of 4:1 against each complex) in D2O at 37 °C. After that, 100 μL of DMSO-d6 was added carefully to each mixture, reaching a final concentration of […] (DMSO-d6/D2O). All of these mixtures were performed using a thermoshaker. Each sample was monitored by ^195Pt NMR at 2, 6, and 24 h.

[2] = Stability in DMEM by 195Pt NMR; type: physicochemical; details: DMSO-d6/DMEM 1:4, 37 °C, 0, 24, 48, 120 h
From the text: We then decided to evaluate the stability of the two Pt(IV) complexes in the medium (DMEM) used to carry out the in vitro experiments, monitoring their kinetics by ^195Pt NMR at different times to evaluate the possible species formed over time. DMEM is supplemented with proteins and other molecules essential for cell growth (Experimental Section). Thus, similar to the reduction assays, we analyzed the Pt(II)/Pt(IV) region where the expected species appear. […] Both Pt(IV)/Pt(II) signals disappeared after 48 h, most likely again because of the binding of the complex to the proteins.
To each solution was then slowly and carefully added 300 μL of DMEM to avoid the precipitation of the complex, reaching a final concentration of 1:4 (DMSO-d6/DMEM). All these mixtures were performed using a thermoshaker. Each sample was monitored by ^195Pt NMR at 0, 24, 48, and 120 h.

[3] = test system: histone gH2Ax foci at double-strand DNA breaks in HCT 116 cells; test: Immunofluorescence of histone gH2Ax DNA damage foci; type: cell-based, human; details: HCT 116, 0.5 μM, 48 h
Method: Confocal imaging of the DNA damage response was followed by immunofluorescence of histone gH2Ax foci at double-strand DNA breaks (DSB) (Figure 4A). […] However, none of the Pt(IV) prodrugs were able to increase p53 levels even at concentrations higher than those needed to reduce cell viability.
Cells in coverslips were washed three times and fixed with 4% paraformaldehyde in PBS (pH 7.4) for 10 min, washed again, permeabilized (PBS [pH7.4], 0.5% Triton X-100, 0.2% BSA) for 5 min, blocked (PBS [pH7,4], 0,05% Triton X-100, 5% BSA) for 1 h at room temperature, and incubated with primary antibody overnight at 4 °C. After three washes (5 min), cells were incubated with secondary antibody for 1 h at room temperature, and the nuclei were stained with 4,6-diamidino-2-phenylindole (DAPI, 1:10,000, Invitrogen) for 10 min. Slides were mounted, and images were acquired using an FV3000 confocal microscope (Olympus) with a 63× objective. The antibodies rabbit monoclonal anti-Histone H2A.X (D17A3) (dilution 1:400) and mouse monoclonal anti-Lamin A/C (4C11) (dilution 1:400) were purchased from Cell Signaling (Danvers, Massachusetts, USA). Donkey Anti-Rabbit-Alexa Fluor 488 (dilution 1:500) and Donkey Anti-Mouse-Alexa Fluor 594 (dilution 1:500) were purchased from Invitrogen (Barcelona, Spain).

[4] = test system: HCT 116 colon carcinoma subcutaneous tumors; test: Subcutaneous HCT 116 tumor model in nude mice; type: in vivo, athymic nude Foxn1nu mice
From the text: Tumor growth was monitored until tumors in the control group reached the ethically allowed size. […] On the other hand, many types of cancer cause a general increase in lactate dehydrogenase (LDH), and it is considered a nonspecific tumor marker.[57]
To establish the subcutaneous tumor, 2 × 10^6 HCT 116 colon carcinoma cells were resuspended 1:1 in culture media and Matrigel (BD) and injected subcutaneously. Six to eight week old female athymic nude Foxn1nu mice (Harlan Iberica) were used for each point. […] Two therapeutic approaches were compared: acute and chronic (see diagram in Figure 5). Acute treatment was performed (three injections of 10 mg/kg); chronic treatment relied on injections of 1 mg/kg every 3–4 days. […] Tumor growth was monitored by personnel unaware of the group distribution. Experiments were finalized when control animals achieved the maximum tumor size approved by the Ethical Committee. Animals were sacrificed by euthanasia by CO2 inhalation. Selected organs were collected from each animal for histopathological analysis. Samples were fixed in 4% paraformaldehyde for 2 h followed by cold 70% ethanol. Plasma serum was collected to determine hepatic and renal toxicity of treatments using a SPIN200E automatic bioanalyzer (Spinreact).

## CC(C)N.CC(C)N.CCO[Si](CCCNC(=O)[O][Pt]([Cl])([Cl])[O]C(=O)NCCC[Si](OCC)(OCC)OCC)(OCC)OCC [Pt(IV)-biSi-2, cis-Dichloro(diisopropylamine)-trans-[3-(triethoxysilyl)propylcarbamate]platinum(IV)]
HCT 116 cells
  Reduction of viability by trypan blue staining: approximately 60%
HCT 116 cancer cells
  Cytotoxicity by flow cytometry, HCT 116: stronger effect
[1]
  Reduction of the Pt(IV) complex by AsA (Pt(IV) signal in 195Pt NMR): no signals were observed in the Pt(IV) region after reaction for 2 h
[2]
  Stability in DMEM (Pt(IV) signal in 195Pt NMR): suffered a marked decrease after 24 h
[3]
  Unresolved DSB / histone H2Ax foci: foci were retained at 48 h
[4]; i.p., acute and chronic treatments
  Tumor volume versus control (PBS): significantly reduced tumor volume
[4]; i.p., acute and chronic treatments, Pt concentration one-third that of cisplatin
  Tumor growth compared with cisplatin: reduced tumor growth more than cisplatin
[4]; serum, versus cisplatin treatment
  LDH levels (tumor marker): reduced LDH levels significantly more
